Results from patent US11725011B2, “Bicyclic urea kinase inhibitors and uses thereof” (The Broad Institute, Inc., priority 2016, dated 2023).

How the values were obtained:
Test in all cases: KINOMEscan
Assay type in all cases: binding
Settings in all cases: 1 uM
AAK1 = AAK1 (Homo sapiens (Human), UniProt Q2M2I8)
[1] = molecular target: ABL1 (T315I)-phosphorylated (Homo sapiens (Human), UniProt P00519, T315I)
ADCK4 = ADCK4 (Homo sapiens (Human), UniProt Q96D53)
CDK2 = CDK2 (Homo sapiens (Human), UniProt P24941)
CDK4-cyclinD3 = CDK4-cyclinD3 (Homo sapiens (Human), UniProt P11802)
Chain of CDK4-cyclinD3 (P11802 whole entry): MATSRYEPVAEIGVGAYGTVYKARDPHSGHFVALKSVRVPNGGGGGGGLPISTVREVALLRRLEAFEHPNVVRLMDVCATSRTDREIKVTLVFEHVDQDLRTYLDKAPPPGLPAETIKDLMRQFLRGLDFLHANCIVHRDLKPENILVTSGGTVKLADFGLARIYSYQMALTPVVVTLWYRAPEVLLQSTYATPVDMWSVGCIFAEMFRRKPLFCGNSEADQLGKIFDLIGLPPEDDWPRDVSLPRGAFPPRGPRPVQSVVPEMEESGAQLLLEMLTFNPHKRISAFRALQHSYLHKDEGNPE
Chain of CDK4-cyclinD3 (P30281 whole entry partner): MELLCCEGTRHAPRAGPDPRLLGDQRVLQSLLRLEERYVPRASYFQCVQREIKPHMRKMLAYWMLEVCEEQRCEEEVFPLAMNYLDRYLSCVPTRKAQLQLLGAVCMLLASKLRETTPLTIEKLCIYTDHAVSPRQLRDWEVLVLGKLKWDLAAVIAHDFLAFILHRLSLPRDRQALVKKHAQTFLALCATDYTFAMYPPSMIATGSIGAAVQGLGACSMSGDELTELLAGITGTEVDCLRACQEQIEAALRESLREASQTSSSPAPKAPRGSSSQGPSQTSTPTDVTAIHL

CDK5 = CDK5 (Homo sapiens (Human), UniProt Q00535)
CSNK1A1L = CSNK1A1L (Homo sapiens (Human), UniProt Q8N752)
DRAK1 = DRAK1 (Homo sapiens (Human), UniProt Q9UEE5)
DRAK2 = DRAK2 (Homo sapiens (Human), UniProt O94768)
Chain of DRAK2 (O94768 whole entry): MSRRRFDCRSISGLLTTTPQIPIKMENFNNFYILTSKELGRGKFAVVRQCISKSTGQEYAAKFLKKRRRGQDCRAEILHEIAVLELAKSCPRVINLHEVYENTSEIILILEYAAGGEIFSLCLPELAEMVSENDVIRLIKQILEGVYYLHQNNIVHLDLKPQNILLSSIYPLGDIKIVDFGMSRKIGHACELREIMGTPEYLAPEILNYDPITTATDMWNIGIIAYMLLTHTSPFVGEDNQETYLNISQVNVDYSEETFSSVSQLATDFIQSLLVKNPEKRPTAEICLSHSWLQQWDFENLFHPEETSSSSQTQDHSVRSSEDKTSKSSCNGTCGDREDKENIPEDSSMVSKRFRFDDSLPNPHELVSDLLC

DYRK2 = DYRK2 (Homo sapiens (Human), UniProt Q92630)
[2] = molecular target: EGFR (L747-S752del, P753S) (Homo sapiens (Human), UniProt P00533, DEL747-752/P753S)
EGFR (S752-I759del) = EGFR (S752-I759del) (Homo sapiens (Human), UniProt P00533, DEL752-759)
FLT3 (K663Q) = FLT3 (K663Q) (Homo sapiens (Human), UniProt P36888, K663Q)
HASPIN = HASPIN (Homo sapiens (Human), UniProt Q8TF76)
HIPK3 = HIPK3 (Homo sapiens (Human), UniProt Q9H422)
ICK = ICK (Homo sapiens (Human), UniProt Q9UPZ9)
JNK1 = JNK1 (Homo sapiens (Human), UniProt P45983)
LCK = LCK (Homo sapiens (Human), UniProt P06239)
MAP3K15 = MAP3K15 (Homo sapiens (Human), UniProt Q6ZN16)
MLK1 = MLK1 (Homo sapiens (Human), UniProt P80192)
NEK2 = NEK2 (Homo sapiens (Human), UniProt P51955)
PAK4 = PAK4 (Homo sapiens (Human), UniProt O96013)
PDGFRA = PDGFRA (Homo sapiens (Human), UniProt P16234)
PDPK1 = PDPK1 (Homo sapiens (Human), UniProt O15530)
Chain of PDPK1 (O15530 whole entry): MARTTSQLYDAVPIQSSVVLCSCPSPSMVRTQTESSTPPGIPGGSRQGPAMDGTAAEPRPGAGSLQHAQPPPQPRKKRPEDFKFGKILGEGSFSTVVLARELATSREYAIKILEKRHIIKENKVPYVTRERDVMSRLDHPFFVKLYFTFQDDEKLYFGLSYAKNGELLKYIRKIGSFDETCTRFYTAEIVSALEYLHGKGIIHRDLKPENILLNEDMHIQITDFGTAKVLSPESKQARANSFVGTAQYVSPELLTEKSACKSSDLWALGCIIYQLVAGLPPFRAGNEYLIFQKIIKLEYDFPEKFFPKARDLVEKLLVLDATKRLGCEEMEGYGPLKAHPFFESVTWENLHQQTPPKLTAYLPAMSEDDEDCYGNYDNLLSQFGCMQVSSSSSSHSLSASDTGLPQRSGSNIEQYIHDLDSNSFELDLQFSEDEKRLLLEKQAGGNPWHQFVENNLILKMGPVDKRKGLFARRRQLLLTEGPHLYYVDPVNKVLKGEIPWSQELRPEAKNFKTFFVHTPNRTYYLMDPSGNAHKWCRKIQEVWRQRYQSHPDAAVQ

PIK3CA (C420R) = PIK3CA (C420R) (Homo sapiens (Human), UniProt P42336, C420R)
PKAC-beta = PKAC-beta (Homo sapiens (Human), UniProt P22694)
PRKG1 = PRKG1 (Homo sapiens (Human), UniProt Q13976)
PRKR = PRKR (Homo sapiens (Human), UniProt P19525)
RAF1 = RAF1 (Homo sapiens (Human), UniProt P04049)
RIPK4 = RIPK4 (Homo sapiens (Human), UniProt P57078)
RIPK5 = RIPK5 (Homo sapiens (Human), UniProt Q6XUX3)
SGK = SGK (Homo sapiens (Human), UniProt O00141)
Chain of SGK (O00141 whole entry): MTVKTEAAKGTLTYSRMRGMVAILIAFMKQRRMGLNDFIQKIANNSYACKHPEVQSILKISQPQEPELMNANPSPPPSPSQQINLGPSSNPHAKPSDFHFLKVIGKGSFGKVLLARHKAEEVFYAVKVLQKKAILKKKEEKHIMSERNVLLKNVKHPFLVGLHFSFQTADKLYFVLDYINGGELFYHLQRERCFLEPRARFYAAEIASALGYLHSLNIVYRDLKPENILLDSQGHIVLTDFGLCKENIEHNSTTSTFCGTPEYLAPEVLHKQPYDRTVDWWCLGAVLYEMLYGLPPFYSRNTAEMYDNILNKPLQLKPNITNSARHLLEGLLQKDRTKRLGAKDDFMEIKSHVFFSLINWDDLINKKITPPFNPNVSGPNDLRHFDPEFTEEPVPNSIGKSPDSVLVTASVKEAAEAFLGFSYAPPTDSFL

SIK = SIK (Homo sapiens (Human), UniProt P57059)
SNARK = SNARK (Homo sapiens (Human), UniProt Q9H093)
Chain of SNARK (Q9H093 whole entry): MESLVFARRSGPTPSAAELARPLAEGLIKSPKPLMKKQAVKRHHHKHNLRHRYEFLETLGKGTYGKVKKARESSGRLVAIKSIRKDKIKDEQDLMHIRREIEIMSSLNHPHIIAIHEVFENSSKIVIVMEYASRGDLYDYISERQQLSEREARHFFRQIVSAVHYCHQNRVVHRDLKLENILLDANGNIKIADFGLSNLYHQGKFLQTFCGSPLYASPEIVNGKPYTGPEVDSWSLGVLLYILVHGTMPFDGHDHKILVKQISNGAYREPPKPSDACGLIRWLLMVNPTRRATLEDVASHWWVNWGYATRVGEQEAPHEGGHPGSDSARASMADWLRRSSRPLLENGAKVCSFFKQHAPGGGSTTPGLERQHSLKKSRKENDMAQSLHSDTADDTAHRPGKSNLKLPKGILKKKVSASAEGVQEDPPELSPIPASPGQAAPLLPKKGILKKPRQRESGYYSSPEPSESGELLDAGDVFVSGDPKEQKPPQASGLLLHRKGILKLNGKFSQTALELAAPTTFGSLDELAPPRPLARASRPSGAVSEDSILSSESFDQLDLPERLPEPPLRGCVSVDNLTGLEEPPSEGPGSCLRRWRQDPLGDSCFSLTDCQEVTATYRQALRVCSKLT

TAOK3 = TAOK3 (Homo sapiens (Human), UniProt Q9H2K8)
Chain of TAOK3 (Q9H2K8 whole entry): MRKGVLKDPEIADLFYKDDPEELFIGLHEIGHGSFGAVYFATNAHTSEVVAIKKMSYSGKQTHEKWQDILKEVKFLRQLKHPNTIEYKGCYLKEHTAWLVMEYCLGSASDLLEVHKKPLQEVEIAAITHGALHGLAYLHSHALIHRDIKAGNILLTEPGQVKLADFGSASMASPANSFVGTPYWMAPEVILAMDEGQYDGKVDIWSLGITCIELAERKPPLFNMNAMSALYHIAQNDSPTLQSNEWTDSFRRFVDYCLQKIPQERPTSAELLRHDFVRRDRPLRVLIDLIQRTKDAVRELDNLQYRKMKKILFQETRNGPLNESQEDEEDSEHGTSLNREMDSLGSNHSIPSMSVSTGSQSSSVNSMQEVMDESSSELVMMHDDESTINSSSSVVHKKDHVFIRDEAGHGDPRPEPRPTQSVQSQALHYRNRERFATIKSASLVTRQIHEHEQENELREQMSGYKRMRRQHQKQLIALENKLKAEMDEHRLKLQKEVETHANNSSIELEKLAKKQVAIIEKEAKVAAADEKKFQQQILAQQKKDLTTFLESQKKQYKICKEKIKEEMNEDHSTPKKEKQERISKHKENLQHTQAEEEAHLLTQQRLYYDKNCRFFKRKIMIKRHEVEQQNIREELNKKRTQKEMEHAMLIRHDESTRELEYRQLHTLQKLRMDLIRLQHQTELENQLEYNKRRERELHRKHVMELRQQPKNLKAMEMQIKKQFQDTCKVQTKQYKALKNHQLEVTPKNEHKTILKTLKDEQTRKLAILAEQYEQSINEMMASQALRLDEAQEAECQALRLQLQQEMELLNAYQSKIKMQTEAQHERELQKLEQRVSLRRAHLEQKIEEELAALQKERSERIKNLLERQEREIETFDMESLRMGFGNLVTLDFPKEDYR

TGFBR2 = TGFBR2 (Homo sapiens (Human), UniProt P37173)
TIE2 = TIE2 (Homo sapiens (Human), UniProt Q02763)
Chain of TIE2 (Q02763 23-1124): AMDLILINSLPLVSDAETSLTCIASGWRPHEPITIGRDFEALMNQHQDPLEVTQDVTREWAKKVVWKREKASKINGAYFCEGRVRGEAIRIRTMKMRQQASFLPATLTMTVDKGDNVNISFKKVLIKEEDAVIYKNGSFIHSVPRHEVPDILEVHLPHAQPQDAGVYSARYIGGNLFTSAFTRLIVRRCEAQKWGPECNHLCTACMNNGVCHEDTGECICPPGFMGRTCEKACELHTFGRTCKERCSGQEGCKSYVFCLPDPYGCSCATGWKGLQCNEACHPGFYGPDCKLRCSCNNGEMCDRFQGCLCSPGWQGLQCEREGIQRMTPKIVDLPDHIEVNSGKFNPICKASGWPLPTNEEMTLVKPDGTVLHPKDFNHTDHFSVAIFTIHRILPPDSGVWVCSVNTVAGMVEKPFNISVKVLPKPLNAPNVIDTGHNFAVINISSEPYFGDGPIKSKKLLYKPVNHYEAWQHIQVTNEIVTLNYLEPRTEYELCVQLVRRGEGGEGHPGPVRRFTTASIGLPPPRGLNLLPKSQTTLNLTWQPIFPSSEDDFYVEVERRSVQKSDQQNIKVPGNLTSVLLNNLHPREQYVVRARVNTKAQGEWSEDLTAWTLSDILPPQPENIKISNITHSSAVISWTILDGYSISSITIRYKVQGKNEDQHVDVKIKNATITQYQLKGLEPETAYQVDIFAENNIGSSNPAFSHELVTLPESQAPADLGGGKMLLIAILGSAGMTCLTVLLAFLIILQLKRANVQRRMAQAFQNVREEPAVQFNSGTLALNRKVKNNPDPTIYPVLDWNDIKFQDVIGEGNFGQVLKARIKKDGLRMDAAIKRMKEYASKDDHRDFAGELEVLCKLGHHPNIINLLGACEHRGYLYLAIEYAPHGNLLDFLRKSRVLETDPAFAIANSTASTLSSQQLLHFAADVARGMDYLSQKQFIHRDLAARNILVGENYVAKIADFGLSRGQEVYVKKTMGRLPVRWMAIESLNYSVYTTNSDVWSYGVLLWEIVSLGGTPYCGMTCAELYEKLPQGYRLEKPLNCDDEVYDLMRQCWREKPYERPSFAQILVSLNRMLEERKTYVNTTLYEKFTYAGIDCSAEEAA

TNK1 = TNK1 (Homo sapiens (Human), UniProt Q13470)
TNNI3K = TNNI3K (Homo sapiens (Human), UniProt Q59H18)
ULK1 = ULK1 (Homo sapiens (Human), UniProt O75385)
YANK2 = YANK2 (Homo sapiens (Human), UniProt Q9NY57)
Chain of YANK2 (Q9NY57 whole entry): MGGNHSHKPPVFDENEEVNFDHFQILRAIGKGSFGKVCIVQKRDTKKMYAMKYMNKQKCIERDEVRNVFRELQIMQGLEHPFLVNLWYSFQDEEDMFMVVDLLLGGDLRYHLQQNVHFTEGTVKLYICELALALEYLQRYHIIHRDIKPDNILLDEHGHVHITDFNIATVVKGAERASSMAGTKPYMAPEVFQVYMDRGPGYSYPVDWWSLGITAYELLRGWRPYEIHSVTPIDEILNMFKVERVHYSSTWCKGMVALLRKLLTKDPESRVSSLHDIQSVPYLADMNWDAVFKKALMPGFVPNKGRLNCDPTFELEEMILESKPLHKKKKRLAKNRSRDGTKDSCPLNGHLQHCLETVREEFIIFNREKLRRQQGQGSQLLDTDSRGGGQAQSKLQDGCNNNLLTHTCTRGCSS

For `COc1ccc(N2C(=O)N(c3c(C)cccc3C)Cc3cnc(Nc4ccc(N5CCN(C)CC5)cc4)nc32)c(OC)c1` [HG-11-136-01], the “KINOMEscan AAK1” value (AAK1) was 13, the “KINOMEscan ABL1 (T315I)-phosphorylated” value [1] was 1.2 and the “KINOMEscan ADCK4” value (ADCK4) was 44. For the same compound, the “KINOMEscan CDK2” value (CDK2) was 97, the “KINOMEscan CDK4-cyclinD3” value (CDK4-cyclinD3) was 26 and the “KINOMEscan CDK5” value (CDK5) was 100. For the same compound, the “KINOMEscan CSNK1A1L” value (CSNK1A1L) was 97, the “KINOMEscan DRAK1” value (DRAK1) was 96 and the “KINOMEscan DRAK2” value (DRAK2) was 100. For the same compound, the “KINOMEscan DYRK2” value (DYRK2) was 5, the “KINOMEscan EGFR (L747-S752del, P753S)” value [2] was 0.95 and the “KINOMEscan EGFR (S752-I759del)” value (EGFR (S752-I759del)) was 4.2. The “KINOMEscan FLT3 (K663Q)” value (FLT3 (K663Q)) was 31, the “KINOMEscan HASPIN” value (HASPIN) was 92 and the “KINOMEscan HIPK3” value (HIPK3) was 2.6. The “KINOMEscan ICK” value (ICK) was 61, the “KINOMEscan JNK1” value (JNK1) was 23 and the “KINOMEscan LCK” value (LCK) was 0.05. The “KINOMEscan MAP3K15” value (MAP3K15) was 40, the “KINOMEscan MLK1” value (MLK1) was 6 and the “KINOMEscan NEK2” value (NEK2) was 75. For the same compound, the “KINOMEscan PAK4” value (PAK4) was 34, the “KINOMEscan PDGFRA” value (PDGFRA) was 0.5 and the “KINOMEscan PDPK1” value (PDPK1) was 100. For the same compound, the “KINOMEscan PIK3CA (C420R)” value (PIK3CA (C420R)) was 69, the “KINOMEscan PKAC-beta” value (PKAC-beta) was 66 and the “KINOMEscan PRKG1” value (PRKG1) was 100. For the same compound, the “KINOMEscan PRKR” value (PRKR) was 73, the “KINOMEscan RAF1” value (RAF1) was 93 and the “KINOMEscan RIPK4” value (RIPK4) was 55. For the same compound, the “KINOMEscan RIPK5” value (RIPK5) was 2.8, the “KINOMEscan SGK” value (SGK) was 63 and the “KINOMEscan SIK” value (SIK) was 0.9. For the same compound, the “KINOMEscan SNARK” value (SNARK) was 0.4, the “KINOMEscan TAOK3” value (TAOK3) was 1.8 and the “KINOMEscan TGFBR2” value (TGFBR2) was 38. The “KINOMEscan TIE2” value (TIE2) was 0.75, the “KINOMEscan TNK1” value (TNK1) was 0.9 and the “KINOMEscan TNNI3K” value (TNNI3K) was 3.6. For the same compound, the “KINOMEscan ULK1” value (ULK1) was 3.2 and the “KINOMEscan YANK2” value (YANK2) was 1.8.
